Results published in patent publication US11725036B2, “Modified lipidated relaxin B chain peptides and their therapeutic use” (Sanofi, priority 2018, dated 2023).
In brackets after ≈: the same amount, converted by molar mass. Like-named read-outs stand apart in the source and are kept apart here. Starred links: 1 amine or outer side, 2 acyl side, 3 side chain; linkers in the order of their positions; H or OH if unused. Non-standard residues stand in square brackets, D forms with d. Residues, ends and D or L forms follow the SMILES beside them. Groups on a side chain read outwards from the residue. *: point of attachment. X5 = CCCCCCCCCCCCCCCC(=O)N[C@@H](CCC(=O)N[C@@H](CCC(=O)N[C@@H](CCC(=O)NCCCOCCOCCOCCCNC(=O)CCC(=O)NCCCOCCOCCOCCCNC(=O)CCC(=O)NCCCOCCOCCOCCCNC(=O)CCC(=O)NCCCOCCOCCOCCCN*)C(=O)O)C(=O)O)C(=O)O; X2 = CCCCCCCCCCCCCCCC(=O)N[C@@H](CCC(=O)N[C@@H](CCC(=O)N[C@@H](CCC(=O)NCCCOCCOCCOCCCNC(=O)CCC(=O)NCCCOCCOCCOCCCN*)C(=O)O)C(=O)O)C(=O)O; Suc = O=C(CCC(=O)[*:2])[*:1]; Aib = CC(C)(N)C(=O)O

Key:
[1] = Solubility testing in buffer; type: physicochemical; conditions: target solubility 10.0 mg/ml
Method: Prior to the testing of solubility of a peptide batch, its purity (HPLC-UV) was determined.
Acetate Buffer 50 mM pH4.5: 0.75 g C2H3C02Na,3H2O (Sigma S7545)+0.35 ml CH3CO2H 100% solution dissolved in Millipore water, adjusted to pH with diluted (1:1) CH3CO2H and diluted to 250 ml with Millipore water.
In a 4 ml Ependorph vial, an accurately weighed sample of compound was diluted in study media to obtain target concentration of 2, 6 or 10 mg/ml of pure compound. The sample vials were shacked (rock 'roll shaker) for ˜19 h. 300 μL aliquots were filtered through a Millipore “Solvinert” plate (0.45 μm-PTFE hydrophilic).
pH was measured with a micro electrode
Waters Acquity UPLC System with DAD detector
Column: Waters Peptide Column CSH C18 (130 Å; 1.7 μm; 50*2.1 mm)
Column temperature: 60° C.
Full loop (about 5 μL)—overfill factor 5
Weak et Strong wash: H2O/ACN (75/25; V/V); Seal wash: H2O/IsOH (95/5; V/V). Mobile phase:
Solvent A: 0.05% TFA in H2O; Solvent B: 0.035% TFA in CH3CN
Gradient: from 0 to 12 min B=2% to 60%, from 12 to 14 min B=60% to 100%. Column washing 100% B 1 min, column equilibration 2% B 2.5 min.
UV detector: wavelength: 220 nm.

RXFP1 = biological target: T1, RXFP1 (Homo sapiens, UniProt Q9HBX9); experiment: OVCAR5 cAMP assay (HTRF); type: cell-based; conditions: for EC50: OVCAR 5 cells expressing endogenous RXFP1, cAMP readout; for Emax: OVCAR 5 cells, maximal cAMP relative to H2-relaxin
T1 construct: OVCAR5 cells expressing endogenous RXFP1; endogenous in cells; host or cells: OVCAR5
T1 sequence (Q9HBX9 1-757): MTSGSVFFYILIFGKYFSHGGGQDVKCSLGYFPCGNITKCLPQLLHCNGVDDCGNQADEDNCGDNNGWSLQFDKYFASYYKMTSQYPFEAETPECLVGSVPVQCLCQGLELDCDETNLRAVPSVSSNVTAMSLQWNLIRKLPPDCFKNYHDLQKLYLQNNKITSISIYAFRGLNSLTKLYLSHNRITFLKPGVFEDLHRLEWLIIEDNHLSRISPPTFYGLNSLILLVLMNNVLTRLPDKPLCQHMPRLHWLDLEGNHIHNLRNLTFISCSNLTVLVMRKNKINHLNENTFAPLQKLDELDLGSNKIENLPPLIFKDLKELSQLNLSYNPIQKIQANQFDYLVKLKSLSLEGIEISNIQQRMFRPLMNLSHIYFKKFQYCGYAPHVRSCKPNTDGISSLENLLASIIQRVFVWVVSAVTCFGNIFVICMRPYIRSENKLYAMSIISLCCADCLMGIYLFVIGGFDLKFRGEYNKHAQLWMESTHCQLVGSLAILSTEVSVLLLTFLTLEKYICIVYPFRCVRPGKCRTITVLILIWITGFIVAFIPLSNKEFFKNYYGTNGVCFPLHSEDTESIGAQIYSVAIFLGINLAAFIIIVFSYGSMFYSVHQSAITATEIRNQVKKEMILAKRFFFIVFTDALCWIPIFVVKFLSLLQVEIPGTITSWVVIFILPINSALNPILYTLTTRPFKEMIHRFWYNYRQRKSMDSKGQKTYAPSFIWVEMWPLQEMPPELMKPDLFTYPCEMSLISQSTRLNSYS
How it was run: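 Peptide agonism measured as intracellular cAMP (HTRF) after 30 min at 37° C in serum-free medium, following 40 min 1 mM IBMX preincubation of OVCAR5 cells. Nonlinear regression gave EC50; Emax % = 100 × compound maximal cAMP / H2-relaxin maximal cAMP.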

[2] = acetate buffer 50 mM pH 4.5, read-out: Solubility Acetate buffer pH 4.5
[3] = phosphate buffer 50 mM pH 7.4, read-out: Solubility phosphate buffer pH 7.4

solubility [1, 2] | solubility [1, 3] | EC50 (RXFP1) | Emax (RXFP1) | SMILES
6750 µg/mL (≈ 1630 µM) | 6580 µg/mL (≈ 1590 µM) | 1.54 nM | 92% | CCCCCCCCCCCCCCCC(=O)N[C@@H](CCC(=O)N[C@@H](CCC(=O)N[C@@H](CCC(=O)NCCCOCCOCCOCCCNC(=O)CCC(=O)NCCCOCCOCCOCCCNC(=O)CCC(=O)NCCCC[C@H](NC(=O)CNC(=O)[C@H](CCC(=O)O)NC(=O)C(C)(C)NC(=O)C(C)(C)NC(=O)[C@@H](NC(=O)[C@H](CCCCNC(C)=O)NC(=O)[C@H](C)NC(=O)[C@H](CCCNC(=N)N)NC(=O)[C@@H](NC(=O)[C@H](CCCCN)NC(=O)[C@H](CCC(=O)O)NC(=O)[C@H](CCCNC(=N)N)NC(=O)CNC(=O)[C@H](CCC(=O)O)NC(=O)[C@H](CC(C)C)NC(C)=O)C(C)C)[C@@H](C)CC)C(=O)N[C@@H](CO)C(=O)N[C@H](C(=O)N[C@@H](Cc1c[nH]c2ccccc12)C(=O)N[C@@H](CO)C(=O)N[C@H](CCCCN)C(=O)N[C@@H](CCCNC(=N)N)C(=O)N[C@@H](CCCCN)C(=O)N[C@@H](CCCCNC(C)=O)C(N)=O)[C@@H](C)O)C(=O)O)C(=O)O)C(=O)O [compound 18] (Ac-LEGREKVRAK(Ac)I[Aib][Aib]EGK([Suc-X2])STWS[dK]RKK(Ac)-NH2)
7390 µg/mL (≈ 1560 µM) | 8470 µg/mL (≈ 1790 µM) | 0.54 nM | 94% | CCCCCCCCCCCCCCCC(=O)N[C@@H](CCC(=O)N[C@@H](CCC(=O)N[C@@H](CCC(=O)NCCCOCCOCCOCCCNC(=O)CCC(=O)NCCCOCCOCCOCCCNC(=O)CCC(=O)NCCCOCCOCCOCCCNC(=O)CCC(=O)NCCCOCCOCCOCCCNC(=O)CCC(=O)NCCCC[C@H](NC(=O)CNC(=O)[C@H](CCC(=O)O)NC(=O)[C@@H](NC(=O)C(C)(C)NC(=O)[C@@H](NC(=O)[C@H](CCCCNC(C)=O)NC(=O)[C@H](C)NC(=O)[C@H](CCCNC(=N)N)NC(=O)[C@@H](NC(=O)[C@H](CCCCN)NC(=O)[C@H](CCC(=O)O)NC(=O)[C@H](CCCNC(=N)N)NC(=O)CNC(=O)[C@H](CCC(=O)O)NC(=O)[C@H](CC(C)C)NC(C)=O)C(C)C)[C@@H](C)CC)[C@@H](C)CC)C(=O)N[C@@H](CO)C(=O)N[C@H](C(=O)N[C@@H](Cc1c[nH]c2ccccc12)C(=O)N[C@@H](CO)C(=O)NC(C)(C)C(=O)N[C@@H](CCCNC(=N)N)C(=O)N[C@@H](CCCCN)C(=O)N[C@@H](CCCCNC(C)=O)C(N)=O)[C@@H](C)O)C(=O)O)C(=O)O)C(=O)O [compound 74] (Ac-LEGREKVRAK(Ac)I[Aib]IEGK([Suc-X5])STWS[Aib]RKK(Ac)-NH2)
9220 µg/mL (≈ 2260 µM) | 6810 µg/mL (≈ 1670 µM) | 4.6 nM | 91% | CCCCCCCCCCCCCCCC(=O)N[C@@H](CCC(=O)N[C@@H](CCC(=O)N[C@@H](CCC(=O)NCCCOCCOCCOCCCNC(=O)CCC(=O)NCCCOCCOCCOCCCNC(=O)CCC(=O)NCCCC[C@H](NC(=O)CNC(=O)[C@H](CCC(=O)O)NC(=O)C(C)(C)NC(=O)C(C)(C)NC(=O)[C@@H](NC(=O)[C@H](CCCCNC(C)=O)NC(=O)[C@H](C)NC(=O)[C@H](CCCNC(=N)N)NC(=O)[C@@H](NC(=O)[C@H](CCCCN)NC(=O)[C@H](CCC(=O)O)NC(=O)[C@H](CCCNC(=N)N)NC(=O)CNC(=O)[C@H](CCC(=O)O)NC(=O)[C@H](CC(C)C)NC(C)=O)C(C)C)[C@@H](C)CC)C(=O)N[C@@H](CO)C(=O)N[C@H](C(=O)N[C@@H](Cc1c[nH]c2ccccc12)C(=O)N[C@@H](CO)C(=O)N[C@H](CCCCN)C(=O)N[C@@H](CCCNC(=N)N)C(=O)N[C@@H](C)C(=O)N[C@@H](CCCCNC(C)=O)C(N)=O)[C@@H](C)O)C(=O)O)C(=O)O)C(=O)O [compound 17] (Ac-LEGREKVRAK(Ac)I[Aib][Aib]EGK([Suc-X2])STWS[dK]RAK(Ac)-NH2)
